Literature values in patent publication US20230190748A1, “COMPOSITIONS FOR TREATMENT OF AGED DISEASES” (GERO PTE. LTD., priority 2020, published 2023).
Blank lines part the entries; values can stand above or below the compound they belong to.

How the values were obtained:
[1] = white to brownish yellow powder
EGFR/ErbB1 = EGFR/ErbB1 (Homo sapiens, UniProt P00533); settings: class symbols + to ++++ and √; legend not given
HER2/ErbB2 = HER2/ErbB2 (Homo sapiens, UniProt P04626); settings: class symbols + to ++++ and √; legend not given
Sequence of HER2/ErbB2 (P04626 23-1255): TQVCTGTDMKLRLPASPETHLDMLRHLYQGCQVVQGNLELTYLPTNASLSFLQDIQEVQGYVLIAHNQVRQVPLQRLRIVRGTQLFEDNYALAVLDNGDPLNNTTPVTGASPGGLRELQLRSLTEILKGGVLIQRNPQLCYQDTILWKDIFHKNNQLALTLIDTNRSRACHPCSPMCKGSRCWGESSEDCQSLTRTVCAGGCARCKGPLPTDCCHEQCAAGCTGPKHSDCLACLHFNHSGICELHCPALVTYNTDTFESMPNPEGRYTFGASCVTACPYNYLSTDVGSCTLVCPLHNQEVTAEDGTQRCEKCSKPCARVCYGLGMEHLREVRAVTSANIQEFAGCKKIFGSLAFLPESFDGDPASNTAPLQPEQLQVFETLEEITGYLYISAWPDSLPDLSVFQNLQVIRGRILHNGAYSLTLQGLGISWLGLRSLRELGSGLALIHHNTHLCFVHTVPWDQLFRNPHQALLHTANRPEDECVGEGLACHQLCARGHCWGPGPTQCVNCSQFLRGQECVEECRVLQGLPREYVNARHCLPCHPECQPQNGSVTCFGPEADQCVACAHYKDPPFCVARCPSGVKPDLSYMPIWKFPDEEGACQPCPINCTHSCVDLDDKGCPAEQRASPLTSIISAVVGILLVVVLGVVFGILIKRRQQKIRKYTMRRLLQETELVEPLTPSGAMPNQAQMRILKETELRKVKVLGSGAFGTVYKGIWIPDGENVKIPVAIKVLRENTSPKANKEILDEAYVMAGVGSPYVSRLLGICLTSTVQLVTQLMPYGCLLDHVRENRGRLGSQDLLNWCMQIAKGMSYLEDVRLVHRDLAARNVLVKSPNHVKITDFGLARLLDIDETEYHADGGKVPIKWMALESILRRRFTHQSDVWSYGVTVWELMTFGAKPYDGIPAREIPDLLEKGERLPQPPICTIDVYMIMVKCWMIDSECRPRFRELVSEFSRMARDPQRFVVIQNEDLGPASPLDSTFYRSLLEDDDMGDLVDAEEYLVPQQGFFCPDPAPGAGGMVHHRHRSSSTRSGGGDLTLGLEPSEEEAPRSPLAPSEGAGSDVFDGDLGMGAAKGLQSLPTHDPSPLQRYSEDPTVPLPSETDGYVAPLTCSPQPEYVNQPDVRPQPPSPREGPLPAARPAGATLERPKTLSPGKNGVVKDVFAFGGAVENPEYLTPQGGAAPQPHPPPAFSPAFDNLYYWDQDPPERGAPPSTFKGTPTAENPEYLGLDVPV

Sequence of EGFR/ErbB1 (P00533 25-1210): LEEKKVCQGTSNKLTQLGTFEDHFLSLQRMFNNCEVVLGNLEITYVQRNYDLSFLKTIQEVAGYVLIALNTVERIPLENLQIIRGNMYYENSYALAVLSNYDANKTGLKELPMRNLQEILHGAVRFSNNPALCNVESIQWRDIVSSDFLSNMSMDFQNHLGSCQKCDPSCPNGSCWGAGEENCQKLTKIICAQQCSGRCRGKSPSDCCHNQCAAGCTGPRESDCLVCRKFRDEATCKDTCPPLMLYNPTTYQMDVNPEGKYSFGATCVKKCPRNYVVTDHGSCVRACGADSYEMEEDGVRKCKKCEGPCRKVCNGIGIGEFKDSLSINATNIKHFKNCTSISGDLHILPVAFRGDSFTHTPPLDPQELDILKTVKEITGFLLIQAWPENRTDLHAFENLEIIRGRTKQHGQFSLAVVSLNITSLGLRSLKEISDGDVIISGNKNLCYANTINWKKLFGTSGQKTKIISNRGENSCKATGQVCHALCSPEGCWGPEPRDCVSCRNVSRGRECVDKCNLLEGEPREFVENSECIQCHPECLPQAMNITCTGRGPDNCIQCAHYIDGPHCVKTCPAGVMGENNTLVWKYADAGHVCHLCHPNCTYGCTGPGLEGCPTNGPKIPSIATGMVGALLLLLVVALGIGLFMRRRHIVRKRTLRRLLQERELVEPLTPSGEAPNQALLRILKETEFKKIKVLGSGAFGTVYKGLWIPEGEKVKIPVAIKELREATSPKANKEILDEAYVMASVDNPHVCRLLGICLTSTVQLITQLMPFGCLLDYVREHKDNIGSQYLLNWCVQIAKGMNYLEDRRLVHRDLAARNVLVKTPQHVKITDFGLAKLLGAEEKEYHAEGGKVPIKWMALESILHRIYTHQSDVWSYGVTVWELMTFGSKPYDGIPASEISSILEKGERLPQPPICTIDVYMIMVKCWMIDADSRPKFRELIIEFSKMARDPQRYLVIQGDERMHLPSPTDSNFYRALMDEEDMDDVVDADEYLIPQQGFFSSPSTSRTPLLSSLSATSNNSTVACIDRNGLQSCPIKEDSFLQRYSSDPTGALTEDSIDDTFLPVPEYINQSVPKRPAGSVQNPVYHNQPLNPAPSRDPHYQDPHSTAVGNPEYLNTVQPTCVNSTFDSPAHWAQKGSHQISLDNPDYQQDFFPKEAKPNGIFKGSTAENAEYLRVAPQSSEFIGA

SMILES: CN(C)C/C=C/C(=O)Nc1cc2c(Nc3ccc(F)c(Cl)c3)ncnc2cc1O[C@H]1CCOC1.O=C(O)/C=C\C(=O)O.O=C(O)/C=C\C(=O)O [Afatinib (BIBW2992) Dimaleate, 2-butenamide, N-[4-[(3-chloro-4-fluorophenyl)amino] 7-[[(3S)-tetrahydro-3-furanyl]oxy]-6-quinazolinyl]-4-(dimethylamino)-,(2E)-, (2Z)-2-butenedioate (1:2)]
solubility in water [1]: water soluble

SMILES: Cc1cc(Nc2ncnc3ccc(-c4ccc(CNCCS(C)(=O)=O)o4)cc23)ccc1Oc1ccn2ncnc2c1 [HER2-Inhibitor-1]
HER2/ErbB2 (HER2/ErbB2): √

SMILES: C=CC(=O)N1CC[C@@H](Oc2nc(Nc3ccc(N4CCC(N5CCN(C)CC5)CC4)cc3)c(C(N)=O)nc2CC)C1 [Naquotinib(ASP8273), Naquotinib]
EGFR/ErbB1 (EGFR/ErbB1): √

SMILES: C=CC(=O)Nc1cccc(Sc2nc(Nc3ccc(N4CCN(C)CC4)cc3)ncc2Cl)c1 [WZ8040]
EGFR/ErbB1 (EGFR/ErbB1): √

Other lines, results leading:

EGFR/ErbB1 (EGFR/ErbB1): √
SMILES: O=C(/C=C/c1ccc(O)c(O)c1)c1ccc(O)cc1O [Butein]

EGFR/ErbB1 (EGFR/ErbB1): √
SMILES: Cc1cc(O)c2c(c1)C(=O)c1cccc(O)c1C2=O [Chrysophanic Acid]

EGFR/ErbB1 (EGFR/ErbB1): √
SMILES: C=CC(=O)Nc1cccc(Oc2nc(Nc3ccc(N4CCN(C)CC4)cc3)nc3ccsc23)c1 [Olmutinib (HM61713, BI 1482694), Olmutinib]
